Measurements from US7629457B2, “Method for producing cytosine nucleoside compounds” (priority 2001, dated 2009).

Key:
cytidine deaminase (cdd) = biological target: T1, cytidine deaminase (cdd) (Escherichia coli, UniProt P0ABF6); assay: cdd (cytidine deaminase) residual activity of MT-10905 cell mass suspension after processing with organic solvent; assay type: biochemical; details: for cdd Activity: organic solvent 50%
T1 construct: endogenous in cells; host or cells: E. coli DH5alpha transformed with pUC-PNP73 (strain MT-10905), whole cell mass suspension
Method: To the cell mass suspension of the strain MT-10905 obtained in Reference Example 2 was added a certain amount of methanol so as to attain any one of the methanol concentrations listed in Table 2, and then the suspension was kept at 30° C. for 1 hour. Cytidine deaminase will be expressed as cdd hereafter. The activity of cdd was analyzed after the cell mass suspension was added to 1.0 ml of the reaction solution consisting of 100 mM tris hydrochloride buffer (pH 8.0) and 20 mM cytidine, and then treated at 50° C. for 2 hours.
The cell mass suspension described above was kept at 30° C. for 1 hour without addition of methanol, and then the activity of cdd of the suspension was set at 100% of relative value.
(§1) The cell mass suspension heat treated for 20 hours in Example 3 was processed with methanol in the same way as in Example 1. The individual activities of the cell mass suspension that was heat treated for 20 hours in Example 3 were set at 100% and the remaining activities were expressed with relative values. The results shown in Table 5 reveal that the activity of PNP was reduced minimally, but the activities of both cod and cdd were eliminated nearly completely.

[1] = biological target: T2, PNP (purine nucleoside phosphorylase) (Escherichia coli, UniProt P0ABP8); assay: PNP residual activity of MT-10905 cell mass suspension after processing with organic solvent; assay type: biochemical; details: for PNP Activity: organic solvent 50%
T2 construct: expressed in transfected cells; host or cells: E. coli DH5alpha transformed with plasmid pUC-PNP73 (strain MT-10905), whole cell mass suspension
Method: The activity of PNP was analyzed after the cell mass suspension was added to 1.0 ml of the reaction solution consisting of 20 mM 2′-deoxyribose-1-phosphate di(monocyclohexylammonium) salt (produced by SIGMA), 5.4 mM adenine (produced by Wako Pure Chemicals, guaranteed grade) and 100 mM tris hydrochloride buffer (pH 8.0), and then treated at 50° C. or 15 minutes. The above reaction was conducted using such an amount of the cell mass as to produce not more than 2 mM deoxyadenosine. The cell mass suspension described above was kept at 30° C. for 1 hour without addition of methanol, and then the activity of PNP of the suspension was set at 100% of relative value. The results shown in Table 2 reveal that the activity of PNP was reduced minimally, but the activity of cdd was eliminated nearly completely.
as §1

cytosine deaminase (cod) = assay: cod (cytosine deaminase) residual activity of heat treated MT-10905 cell mass suspension after processing with methanol; assay type: biochemical, Escherichia coli; details: cells heat treated 60° C. 20 hours = 100%
Method: The cell mass suspension of the strain MT-10905 obtained in Reference Example 2 was kept at 60° C. Cytosine deaminase will be expressed as cod hereafter. The activity of cod was analyzed after the cell mass suspension was added to 100 mM tris hydrochloride buffer (pH 8.0) and 20 mM cytosine, and then treated at 50° C. for 2 hours. The cod activity of the cell mass suspension that was not heat treated was set at 100% and the remaining activities were expressed with relative values. The results shown in Table 4 reveal that the activity of PNP was reduced minimally, but the activity of cod was eliminated nearly completely.
as §1

[2] = MeOH 10%, 30° C. 1 hour, no methanol = 100%
[3] = MeOH 10%, cells heat treated 60° C. 20 hours = 100%
[4] = MeOH 25%, 30° C. 1 hour, no methanol = 100%
[5] = MeOH 25%, cells heat treated 60° C. 20 hours = 100%
[6] = MeOH 50%, 30° C. 1 hour, no methanol = 100%
[7] = MeOH 50%, cells heat treated 60° C. 20 hours = 100%
[8] = MeOH 70%, 30° C. 1 hour, no methanol = 100%
[9] = MeOH 70%, cells heat treated 60° C. 20 hours = 100%
[10] = MeOH 90%, 30° C. 1 hour, no methanol = 100%
[11] = MeOH 90%, cells heat treated 60° C. 20 hours = 100%

T1 sequence (P0ABF6 whole entry): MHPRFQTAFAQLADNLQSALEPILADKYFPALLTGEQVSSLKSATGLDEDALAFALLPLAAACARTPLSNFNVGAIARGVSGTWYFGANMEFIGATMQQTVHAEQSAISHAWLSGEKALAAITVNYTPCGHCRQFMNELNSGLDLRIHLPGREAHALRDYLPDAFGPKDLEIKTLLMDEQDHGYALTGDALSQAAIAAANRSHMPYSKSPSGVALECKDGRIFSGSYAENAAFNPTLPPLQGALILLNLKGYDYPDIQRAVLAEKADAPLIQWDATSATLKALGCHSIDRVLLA
T2 sequence (P0ABP8 2-239): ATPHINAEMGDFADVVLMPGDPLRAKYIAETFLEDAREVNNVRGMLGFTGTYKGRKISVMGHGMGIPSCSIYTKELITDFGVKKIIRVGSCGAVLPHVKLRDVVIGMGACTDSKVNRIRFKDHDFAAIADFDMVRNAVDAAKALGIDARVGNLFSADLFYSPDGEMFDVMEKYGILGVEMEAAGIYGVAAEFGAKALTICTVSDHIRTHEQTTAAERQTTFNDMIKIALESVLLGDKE

SMILES: CN(C)C=O [N,N-Dimethylformamide]
- cdd Activity (cytidine deaminase (cdd); 30° C. 1 hour): 5%
- PNP Activity ([1]; 30° C. 1 hour): 97%

SMILES: CN1CCN(C)C1=O [N,N-Dimethylimidazolidinone]
- cdd Activity (cytidine deaminase (cdd); 30° C. 1 hour): 4%
- PNP Activity ([1]; 30° C. 1 hour): 95%

SMILES: CO [MeOH, methanol]
- cod Residual Activity (%) (cytosine deaminase (cod); MeOH 10%): 90%
- cod Residual Activity (%) (cytosine deaminase (cod); MeOH 25%): 80%
- cod Residual Activity (%) (cytosine deaminase (cod); MeOH 50%): 50%
- cod Residual Activity (%) (cytosine deaminase (cod); MeOH 70%): 30%
- cod Residual Activity (%) (cytosine deaminase (cod); MeOH 90%): 10%
- cdd Residual Activity (%) (cytidine deaminase (cdd); [2]): 80%
- cdd Residual Activity (%) (cytidine deaminase (cdd); [3]): 80%
- cdd Residual Activity (%) (cytidine deaminase (cdd); [4]): 50%
- cdd Residual Activity (%) (cytidine deaminase (cdd); [5]): 50%
- cdd Residual Activity (%) (cytidine deaminase (cdd); [6]): 10%
- cdd Residual Activity (%) (cytidine deaminase (cdd); [7]): 10%
- cdd Residual Activity (%) (cytidine deaminase (cdd); [8]): 0.5%
- cdd Residual Activity (%) (cytidine deaminase (cdd); [9]): 0.5%
- cdd Residual Activity (%) (cytidine deaminase (cdd); [10]): 0.1%
- cdd Residual Activity (%) (cytidine deaminase (cdd); [11]): 0.1%
- PNP Residual Activity (%) [1, 2]: 100%
- PNP Residual Activity (%) [1, 3]: 100%
- PNP Residual Activity (%) [1, 4]: 99%
- PNP Residual Activity (%) [1, 5]: 98%
- PNP Residual Activity (%) [1, 6]: 98%
- PNP Residual Activity (%) [1, 7]: 96%
- PNP Residual Activity (%) [1, 8]: 97%
- PNP Residual Activity (%) [1, 9]: 96%
- PNP Residual Activity (%) [1, 10]: 97%
- PNP Residual Activity (%) [1, 11]: 96%

SMILES: C[S+](C)[O-] [Dimethyl Sulfoxide]
- cdd Activity (cytidine deaminase (cdd); 30° C. 1 hour): 4%
- PNP Activity ([1]; 30° C. 1 hour): 96%
